Experimental data: patent US20240103005A1, “N-ACRYLOYLINDOLES AND METHODS OF USE” (The University of Hong Kong, priority 2022, published 2024)

System: HepG2 cells
Assay: Imaging oxidized thiols in HepG2 cells under oxidative stress by NAI/NAIA couple
Type: cell-based
Settings: 50 μM, 10 min
Description: Imaging Oxidized Thiols in HepG2 Cells Under Oxidative Stress by NAI/NAIA Couple
HepG2 cells were plated on a 8-well Nunc Lab-Tek chambered slide system and allowed to grow in complete medium at 37° C. with 5% CO2 to ca. 70% confluency. The cells were then pretreated with solvent vehicles, H2O2 (0.5 or 1 mM) or H2O2 (1 mM)+NAC (5 mM) in complete medium for 15 min at 37° C. The cells were washed with PBS and incubated with NAI compound 3 (50 μM) in complete medium for 10 min at 37° C. After that, the cells were washed with PBS and fixed by 4% paraformaldehyde in PBS at room temperature for 15 min. […] The cells were washed thrice with PBS and then imaged in PBS by confocal fluorescence microscopy.
Confocal fluorescence microscopy imaging was performed with a Zeiss laser scanning microscope 880 with a 20× water-immersion objective lens using ZEN 2.3 (Black Version) software (Carl Zeiss) with 3× magnification zoom-in. […] A region of interest (ROI) was created around individual cell, and cellular fluorescence intensity was measured. The reported average cellular fluorescence intensity was determined by averaging the measured intensity from 30 different cells from 3 different biological replicates/group. […]
Therefore, we sought to utilize the NAI/NAIA couple to capture oxidized thiols and image them by confocal fluorescence microscopy (FIGS. 12A-12B). […]

`C=CC(=O)N1CCc2cc(OCC(=O)OC(C)(C)C)ccc21` [compound 3b] was tested, and the “trapping of free thiols in live cells” value was “excellent trapping of free thiols”.
